Data from the supplement of paper PMC10307832.

compound: Cc1ccc(C(=O)Nc2ccc(CN3CCN(C)CC3)c(C(F)(F)F)c2)cc1C#Cc1cnc2cccnn12 [Ponatinib] + O=C(c1cc(Cc2n[nH]c(=O)c3ccccc23)ccc1F)N1CCN(C(=O)C2CC2)CC1 [Olaparib] (partner 8 µM); assay: relative viability (nuclei count vs DMSO), 5 days (fraction); higher = more cells survive; conditions: first compound 0.002 µM
How it was run: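 After 5 days of treatment, lung cancer cells in 1536-well plates were fixed and stained in a single step (final 0.05% Triton X-100, 1% formaldehyde, 1 ug/ml Hoechst) and their nuclei counted on 4× images. Treatment had been applied by pin tool the day after seeding as one drug alone or as a fixed anchor-drug dose with five library-drug doses (not always all listed) in √10 steps. Relative viability is the nuclei count of treated wells divided by that of vehicle wells, and values are medians of duplicate plates.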

Cell Line	relative viability
NCI-H2342	0.473
NCI-H838	0.758
NCI-H1650	0.919
EBC-1	0.625
NCI-H1703	0.37
NCI-H1993	1.01
NCI-H2347	0.546
PC-14	0.334
LCLC-103H	0.754
NCI-H596	0.662
NCI-H2126	0.902
EMC-BAC-2	0.434
NCI-H2085	0.808
Calu-6	0.541
HCC-366	0.323
NCI-H1666	0.749
NCI-H647	0.521
LK-2	0.584
NCI-H2087	0.514
NCI-H1648	0.49
NCI-H1395	0.446

Cell Line	relative viability
H3255	0.573
COR-L23	0.277
COR-L 105	0.711
IA-LM	0.705
LOU-NH91	0.898
ChaGo-K-1	0.438
NCI-H358	0.565
A549	0.299
NCI-H522	0.731
SW 900	0.958
NCI-H2009	0.586
NCI-H520	0.335
SW 1573	0.591
NCI-H1299	0.981
CAL-12T	0.735
NCI-H2228	0.622
NCI-H2023	0.455
SK-LU-1	0.36
SK-MES-1	0.765
NCI-H661	0.724

same assay, conditions: first compound 0.006325 µM

Cell Line	relative viability
NCI-H2342	0.483
NCI-H838	0.771
NCI-H1650	0.884
EBC-1	0.756
NCI-H1703	0.449
NCI-H1993	1.01
NCI-H2347	0.604
PC-14	0.359
LCLC-103H	0.743
NCI-H596	0.72
NCI-H2126	0.904
EMC-BAC-2	0.455
NCI-H2085	0.814
Calu-6	0.556
HCC-366	0.382
NCI-H1666	0.76
NCI-H647	0.527
LK-2	0.759
NCI-H2087	0.609
NCI-H1648	0.897
NCI-H1395	0.425

Cell Line	relative viability
H3255	0.534
COR-L23	0.349
COR-L 105	0.709
IA-LM	0.835
LOU-NH91	0.919
ChaGo-K-1	0.486
NCI-H358	0.609
A549	0.384
NCI-H522	0.708
SW 900	0.867
NCI-H2009	0.632
NCI-H520	0.355
SW 1573	0.519
NCI-H1299	0.955
CAL-12T	0.663
NCI-H2228	0.57
NCI-H2023	0.465
SK-LU-1	0.491
SK-MES-1	0.819
NCI-H661	0.704

same assay, conditions: first compound 0.06325 µM

Cell Line	relative viability
NCI-H2342	0.424
NCI-H838	0.795
NCI-H1650	0.916
EBC-1	0.77
NCI-H1703	0.262
NCI-H1993	1.16
NCI-H2347	0.625
PC-14	0.347
LCLC-103H	0.838
NCI-H596	0.787
NCI-H2126	0.967
EMC-BAC-2	0.482
NCI-H2085	0.9
Calu-6	0.497
HCC-366	0.482
NCI-H1666	0.733
NCI-H647	0.615
LK-2	0.661
NCI-H2087	0.635
NCI-H1648	0.572
NCI-H1395	0.47

Cell Line	relative viability
H3255	0.602
COR-L23	0.335
COR-L 105	0.723
IA-LM	0.785
LOU-NH91	1.03
ChaGo-K-1	0.41
NCI-H358	0.648
A549	0.394
NCI-H522	0.632
SW 900	0.95
NCI-H2009	0.655
NCI-H520	0.325
SW 1573	0.496
NCI-H1299	0.938
CAL-12T	0.822
NCI-H2228	0.823
NCI-H2023	0.552
SK-LU-1	0.535
SK-MES-1	0.857
NCI-H661	0.833

same assay, conditions: first compound 0.2 µM

Cell Line	relative viability
NCI-H2342	0.467
NCI-H838	0.669
NCI-H1650	0.751
EBC-1	0.644
NCI-H1703	0.207
NCI-H1993	1.12
NCI-H2347	0.547
PC-14	0.284
LCLC-103H	0.694
NCI-H596	0.661
NCI-H2126	0.847
EMC-BAC-2	0.398
NCI-H2085	0.754
Calu-6	0.493
HCC-366	0.328
NCI-H1666	0.664
NCI-H647	0.522
LK-2	0.435

Cell Line	relative viability
NCI-H2087	0.497
NCI-H1648	0.51
NCI-H1395	0.433
H3255	0.554
COR-L23	0.303
COR-L 105	0.747
IA-LM	0.646
LOU-NH91	0.879
ChaGo-K-1	0.436
NCI-H358	0.49
A549	0.384
NCI-H522	0.507
SW 900	0.725
NCI-H2009	0.616
NCI-H520	0.225
SW 1573	0.408
NCI-H1299	0.876
